Reference: ChEMBL document CHEMBL1909046, “DrugMatrix in vitro pharmacology data”

Assays:
[1] = DRUGMATRIX: Sigma2 radioligand binding (ligand: [3H] Ifenprodil); type: cell membranes, Rattus norvegicus, Wistar, Brain, Membrane; conditions: Not Active = under 50% inhibition at 10 µM
Androgen receptor [2] = target: T1, Androgen receptor (Rattus norvegicus, UniProt P15207); note: in other assays of this panel Not Active means under 50% inhibition at 10 µM
T1 sequence (P15207 whole entry): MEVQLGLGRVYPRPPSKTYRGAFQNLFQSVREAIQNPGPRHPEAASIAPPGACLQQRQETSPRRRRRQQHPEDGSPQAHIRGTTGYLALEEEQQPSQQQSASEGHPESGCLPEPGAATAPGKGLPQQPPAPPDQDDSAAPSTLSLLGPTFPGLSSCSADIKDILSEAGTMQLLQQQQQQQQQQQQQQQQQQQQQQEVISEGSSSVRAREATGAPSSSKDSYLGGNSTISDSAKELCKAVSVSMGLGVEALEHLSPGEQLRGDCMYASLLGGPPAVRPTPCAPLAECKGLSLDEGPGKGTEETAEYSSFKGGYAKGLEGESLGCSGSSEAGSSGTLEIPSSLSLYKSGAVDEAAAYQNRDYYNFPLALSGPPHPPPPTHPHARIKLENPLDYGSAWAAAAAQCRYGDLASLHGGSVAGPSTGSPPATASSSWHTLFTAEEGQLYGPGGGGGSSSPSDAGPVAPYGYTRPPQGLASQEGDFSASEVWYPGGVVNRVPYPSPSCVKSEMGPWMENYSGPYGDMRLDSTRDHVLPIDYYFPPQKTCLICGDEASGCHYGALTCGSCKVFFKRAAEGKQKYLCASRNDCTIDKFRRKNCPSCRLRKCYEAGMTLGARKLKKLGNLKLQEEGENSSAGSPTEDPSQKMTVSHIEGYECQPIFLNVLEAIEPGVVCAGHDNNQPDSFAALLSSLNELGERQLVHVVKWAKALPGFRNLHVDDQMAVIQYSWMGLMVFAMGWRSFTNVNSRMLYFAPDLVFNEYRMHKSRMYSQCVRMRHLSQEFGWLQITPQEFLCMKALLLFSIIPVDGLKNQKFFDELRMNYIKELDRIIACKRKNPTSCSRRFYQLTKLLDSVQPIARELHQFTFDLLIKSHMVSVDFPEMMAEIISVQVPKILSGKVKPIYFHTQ

Cytochrome P450 2D6 = Cytochrome P450 2D6 (Homo sapiens, UniProt P10635); note: in other assays of this panel Not Active means under 50% inhibition at 10 µM
Sequence of Cytochrome P450 2D6 (P10635 whole entry): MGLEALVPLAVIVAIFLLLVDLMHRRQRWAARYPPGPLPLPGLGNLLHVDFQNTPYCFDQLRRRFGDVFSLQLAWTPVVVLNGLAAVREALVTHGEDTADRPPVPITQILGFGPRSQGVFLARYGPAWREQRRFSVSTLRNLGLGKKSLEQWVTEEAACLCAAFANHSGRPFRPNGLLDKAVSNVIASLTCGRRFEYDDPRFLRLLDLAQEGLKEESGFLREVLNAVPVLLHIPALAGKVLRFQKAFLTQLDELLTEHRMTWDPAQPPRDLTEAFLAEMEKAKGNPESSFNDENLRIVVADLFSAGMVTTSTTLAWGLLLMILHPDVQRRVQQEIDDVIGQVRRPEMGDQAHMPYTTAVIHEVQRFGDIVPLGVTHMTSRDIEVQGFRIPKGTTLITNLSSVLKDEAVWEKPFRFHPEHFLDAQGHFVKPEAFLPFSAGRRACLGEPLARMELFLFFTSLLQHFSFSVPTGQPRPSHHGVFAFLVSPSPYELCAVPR

Cytochrome P450 2C9 = Cytochrome P450 2C9 (Homo sapiens, UniProt P11712); note: in other assays of this panel Not Active means under 50% inhibition at 10 µM
Sequence of Cytochrome P450 2C9 (P11712 whole entry): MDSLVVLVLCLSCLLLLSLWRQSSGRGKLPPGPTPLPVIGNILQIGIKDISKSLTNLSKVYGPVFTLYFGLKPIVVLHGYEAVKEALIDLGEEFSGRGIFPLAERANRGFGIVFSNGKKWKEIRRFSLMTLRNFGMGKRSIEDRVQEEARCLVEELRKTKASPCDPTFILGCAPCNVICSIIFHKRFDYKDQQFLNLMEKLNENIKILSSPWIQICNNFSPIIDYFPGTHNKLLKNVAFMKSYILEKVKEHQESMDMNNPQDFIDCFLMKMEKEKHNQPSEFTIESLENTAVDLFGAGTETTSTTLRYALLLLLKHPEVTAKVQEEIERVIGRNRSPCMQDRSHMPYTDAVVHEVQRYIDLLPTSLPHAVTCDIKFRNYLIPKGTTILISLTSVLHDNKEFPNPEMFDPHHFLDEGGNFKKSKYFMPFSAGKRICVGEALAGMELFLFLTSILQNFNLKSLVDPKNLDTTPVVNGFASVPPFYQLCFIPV

Androgen receptor [3] = target: T1, Androgen receptor; remark: listed apart in the source
Cytochrome P450 2C19 = Cytochrome P450 2C19 (Homo sapiens, UniProt P33261); note: in other assays of this panel Not Active means under 50% inhibition at 10 µM
Sequence of Cytochrome P450 2C19 (P33261 whole entry): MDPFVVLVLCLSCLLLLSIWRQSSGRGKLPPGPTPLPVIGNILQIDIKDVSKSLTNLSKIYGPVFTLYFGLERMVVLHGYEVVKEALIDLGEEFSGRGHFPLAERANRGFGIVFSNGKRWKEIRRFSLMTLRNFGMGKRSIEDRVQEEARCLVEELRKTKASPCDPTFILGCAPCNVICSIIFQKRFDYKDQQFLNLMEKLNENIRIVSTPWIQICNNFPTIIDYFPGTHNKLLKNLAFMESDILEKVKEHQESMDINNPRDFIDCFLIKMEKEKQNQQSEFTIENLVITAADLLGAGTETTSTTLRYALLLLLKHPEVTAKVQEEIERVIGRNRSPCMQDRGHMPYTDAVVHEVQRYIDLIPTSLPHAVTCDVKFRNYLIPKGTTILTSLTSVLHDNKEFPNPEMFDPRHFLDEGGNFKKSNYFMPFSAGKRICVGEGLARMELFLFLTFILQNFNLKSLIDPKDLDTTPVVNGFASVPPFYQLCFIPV

Cytochrome P450 1A2 = target: T2, Cytochrome P450 1A2 (Homo sapiens, UniProt P05177); note: in other assays of this panel Not Active means under 50% inhibition at 10 µM
T2 sequence (P05177 whole entry): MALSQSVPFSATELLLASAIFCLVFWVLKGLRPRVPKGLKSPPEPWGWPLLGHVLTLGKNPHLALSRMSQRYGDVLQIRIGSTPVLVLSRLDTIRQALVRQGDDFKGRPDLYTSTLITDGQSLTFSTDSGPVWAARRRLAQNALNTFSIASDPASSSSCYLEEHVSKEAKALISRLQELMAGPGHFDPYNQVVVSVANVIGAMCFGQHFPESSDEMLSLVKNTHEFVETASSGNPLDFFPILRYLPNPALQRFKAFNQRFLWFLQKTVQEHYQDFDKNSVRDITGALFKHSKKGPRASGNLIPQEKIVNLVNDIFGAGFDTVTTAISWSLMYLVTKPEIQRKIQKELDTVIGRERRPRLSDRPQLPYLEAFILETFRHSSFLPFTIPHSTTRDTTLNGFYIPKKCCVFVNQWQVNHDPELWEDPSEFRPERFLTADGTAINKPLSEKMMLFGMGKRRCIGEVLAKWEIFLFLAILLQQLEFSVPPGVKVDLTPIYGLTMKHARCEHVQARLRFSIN

Glycine receptor = Glycine receptor (Rattus norvegicus, UniProt P07727+P20781+P22771+P24524); type: cell membranes, Wistar, Spinal cord, Membrane; note: in other assays of this panel Not Active means under 50% inhibition at 10 µM
Sequence of Glycine receptor (P22771 whole entry): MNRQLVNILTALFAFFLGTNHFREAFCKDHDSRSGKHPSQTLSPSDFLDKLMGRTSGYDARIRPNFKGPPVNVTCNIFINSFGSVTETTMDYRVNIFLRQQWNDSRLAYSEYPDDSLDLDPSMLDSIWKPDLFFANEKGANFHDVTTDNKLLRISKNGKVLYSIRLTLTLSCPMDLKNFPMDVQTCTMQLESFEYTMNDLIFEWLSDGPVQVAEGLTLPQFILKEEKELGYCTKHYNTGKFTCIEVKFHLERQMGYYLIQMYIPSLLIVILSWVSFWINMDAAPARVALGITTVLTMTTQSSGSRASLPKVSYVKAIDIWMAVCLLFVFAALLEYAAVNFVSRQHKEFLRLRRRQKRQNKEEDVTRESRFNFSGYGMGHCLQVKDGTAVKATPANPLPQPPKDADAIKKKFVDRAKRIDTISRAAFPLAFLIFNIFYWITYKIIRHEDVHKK
Sequence of Glycine receptor (P24524 whole entry): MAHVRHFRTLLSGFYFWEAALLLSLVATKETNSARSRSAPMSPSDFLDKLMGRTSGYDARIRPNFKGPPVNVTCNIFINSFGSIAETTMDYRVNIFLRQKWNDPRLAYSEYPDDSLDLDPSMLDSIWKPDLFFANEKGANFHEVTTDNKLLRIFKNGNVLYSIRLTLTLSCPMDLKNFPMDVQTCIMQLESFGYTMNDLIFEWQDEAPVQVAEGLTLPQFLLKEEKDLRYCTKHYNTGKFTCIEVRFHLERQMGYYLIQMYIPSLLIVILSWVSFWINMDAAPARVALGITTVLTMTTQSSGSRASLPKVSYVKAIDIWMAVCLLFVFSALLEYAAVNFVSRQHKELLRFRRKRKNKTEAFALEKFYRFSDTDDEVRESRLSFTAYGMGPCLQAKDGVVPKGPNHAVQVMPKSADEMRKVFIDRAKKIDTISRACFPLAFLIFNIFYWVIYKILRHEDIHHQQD
Sequence of Glycine receptor (P07727 whole entry): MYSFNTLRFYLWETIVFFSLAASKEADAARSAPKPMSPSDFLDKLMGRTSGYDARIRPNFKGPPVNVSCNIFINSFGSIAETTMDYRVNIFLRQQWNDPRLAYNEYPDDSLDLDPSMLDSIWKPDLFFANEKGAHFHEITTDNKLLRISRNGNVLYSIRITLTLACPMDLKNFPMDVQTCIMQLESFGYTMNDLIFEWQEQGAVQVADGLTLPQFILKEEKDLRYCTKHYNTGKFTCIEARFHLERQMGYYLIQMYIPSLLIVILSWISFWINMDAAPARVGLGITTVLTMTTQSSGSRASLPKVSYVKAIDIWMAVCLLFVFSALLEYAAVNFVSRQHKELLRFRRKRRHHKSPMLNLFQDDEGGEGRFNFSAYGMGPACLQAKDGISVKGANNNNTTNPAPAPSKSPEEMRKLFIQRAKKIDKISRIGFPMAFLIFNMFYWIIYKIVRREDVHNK
Sequence of Glycine receptor (P20781 whole entry): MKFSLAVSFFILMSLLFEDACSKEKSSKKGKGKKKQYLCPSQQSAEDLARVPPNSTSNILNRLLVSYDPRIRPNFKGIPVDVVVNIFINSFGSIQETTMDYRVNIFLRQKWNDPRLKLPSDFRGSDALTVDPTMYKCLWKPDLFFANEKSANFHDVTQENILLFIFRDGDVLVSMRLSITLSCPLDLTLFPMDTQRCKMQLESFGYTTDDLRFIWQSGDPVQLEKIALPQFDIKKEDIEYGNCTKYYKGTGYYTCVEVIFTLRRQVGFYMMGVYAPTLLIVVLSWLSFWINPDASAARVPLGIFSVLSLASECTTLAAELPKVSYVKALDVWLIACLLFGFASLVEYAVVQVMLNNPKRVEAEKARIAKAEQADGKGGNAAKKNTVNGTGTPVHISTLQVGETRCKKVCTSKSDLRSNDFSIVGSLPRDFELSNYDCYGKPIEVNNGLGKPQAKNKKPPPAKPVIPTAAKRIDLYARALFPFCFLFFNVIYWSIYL

Row | Compound | IC50 [1] | Ki [1] | IC50 (Androgen receptor [2]) | further results
1 | CCCCC(=O)N(Cc1ccc(-c2ccccc2-c2nnn[nH]2)cc1)[C@H](C(=O)O)C(C)C | Not Active | Not Active |  | 
2 | O=C(O)COc1ccc(C(=O)c2cccs2)c(Cl)c1Cl | Not Active | Not Active | Not Active | 
3 | C[C@@](Cc1ccc(O)c(O)c1)(NN)C(=O)O.O [CARBIDOPA] | Not Active | Not Active |  | 
4 | O=C(O)CCCCC1CCSS1 (stereo not drawn) [LIPOIC ACID, ALPHA] | Not Active | Not Active |  | 
5 | Clc1ccc(COC(Cn2ccnc2)c2ccc(Cl)cc2Cl)c(Cl)c1 (configuration not stated) [MICONAZOLE] |  |  |  | IC50 (Cytochrome P450 2D6): 1000 nM; IC50 (Cytochrome P450 2C9): 200 nM; IC50 (Androgen receptor [3]): 7090 nM; Ki (Androgen receptor [3]): 4730 nM
6 | Oc1ccc2c3c1O[C@H]1[C@@H](O)CC[C@@]4(O)[C@@H](C2)N(CC2CCC2)CC[C@]314 [NALBUPHINE] |  |  | Not Active | 
7 | C[C@]12C=CC(=O)C=C1CC[C@@H]1[C@@H]2C(=O)C[C@@]2(C)[C@H]1CC[C@]2(O)C(=O)CO [PREDNISONE] | Not Active | Not Active |  | 
8 | COC(=O)[C@H]1[C@H]2C[C@@H]3c4[nH]c5cc(OC)ccc5c4CCN3C[C@H]2C[C@@H](OC(=O)c2cc(OC)c(OC)c(OC)c2)[C@@H]1OC [RESERPINE] | Not Active | Not Active |  | 
9 | O=C(O)c1ccccc1O [SALICYLIC ACID] | Not Active | Not Active |  | 
10 | C[S+]([O-])c1ccc(-c2nc(-c3ccncc3)c(-c3ccc(F)cc3)[nH]2)cc1 (configuration not stated) [SB-203580] |  |  | Not Active | IC50 (Cytochrome P450 2D6): 2000 nM; IC50 (Cytochrome P450 2C19): 800 nM; IC50 (Cytochrome P450 1A2): 2000 nM; IC50 (Cytochrome P450 2C9): 1000 nM
11 | CC1CCC(NC(=O)N(CCCl)N=O)CC1 (configuration not stated) [SEMUSTINE] | Not Active | Not Active |  | 
12 | O=C1C[C@@H]2OCC=C3CN4CC[C@]56c7ccccc7N1[C@H]5[C@H]2[C@H]3C[C@H]46 [STRYCHNINE] | Not Active | Not Active |  | IC50 (Glycine receptor): 8.29 nM; Ki (Glycine receptor): 4.69 nM
13 | C[N+](C)(C)CCOC(=O)CCC(=O)OCC[N+](C)(C)C.[Cl-].[Cl-] [SUCCINYLCHOLINE CHLORIDE] | Not Active | Not Active |  | 
14 | Nc1ccc(S(=O)(=O)NC(=O)c2ccccc2)cc1 [SULFABENZAMIDE] | Not Active | Not Active |  | 
15 | CCCCCCCCNC(C)C(O)c1ccc(SC(C)C)cc1 (configuration not stated) [SULOCTIDIL] |  |  | Not Active | IC50 ([1]; read-out: IC50): 21.4 nM; Ki ([1]; read-out: Ki): 13.2 nM
16 | O=c1[nH]c(=O)n(C2CCCO2)cc1F (configuration not stated) [TEGAFUR] | Not Active | Not Active |  | 
17 | CC(=N)S [THIOACETAMIDE] | Not Active | Not Active |  | 
18 | Cc1ccc(C(=O)c2ccc(CC(=O)O)n2C)cc1 [TOLMETIN] | Not Active | Not Active | Not Active | 
19 | CC(=O)OCC(COC(C)=O)OC(C)=O [TRIACETIN] | Not Active | Not Active |  | 
20 | CN1CCN(CCCN2c3ccccc3Sc3ccc(C(F)(F)F)cc32)CC1 [TRIFLUOPERAZINE] | Not Active | Not Active |  | 
21 | TRANSPLATIN | Not Active | Not Active | Not Active | Ki (Androgen receptor [2]): Not Active
22 | ZIRCONIUM(IV) CHLORIDE | Not Active | Not Active | Not Active | Ki (Androgen receptor [2]): Not Active
